According to PubChem BioAssay AID651584 (Broad Institute, 2012):
Several values for one entry are separate records, joined by “and”; a condition that tells them apart may be missing. Equal values may be shown once. Activity calls are given as the source filed them.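 How the source made its calls: active means viability loss whose fitted half-maximal potency is at most twice the top valid dose for that sample; inconclusive means flat curve with 30 to 70% viability loss, or poor fit; inactive means the rest.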

Legend:
[1] = growth inhibition of MALME3 cells – cell-based, CellTiter-Glo luminescence, dry powder, set 5, orthogonal assay for MITF inhibitor project, dose response (AID 651584); conditions: MALME3 melanoma viability, CellTiter-Glo ATP luminescence, 24 h; at 35 µM (top of the series)
[2] = test system: MALME3 melanoma viability, CellTiter-Glo ATP luminescence, 24 h; test: as above

Compound | activity change, negative = viability loss [1] | AC50 [2]
NC1=C(NS(=O)(=O)c2ccc(Br)s2)C(=O)c2ccccc2C1=O | -3.99% (inactive) | –
O=C1C=C(Nc2ccccc2)C(=O)c2ccccc21 | – | 5.86 µM and 28.4 µM
